Assays:
XPG = target: T1, XPG (Homo sapiens, UniProt P28715); experiment: Secondary screen, fluorescence assay with XPG endonuclease; format: biochemical; details: compound titration in the HTS assay
T1 sequence (P28715 1-1186): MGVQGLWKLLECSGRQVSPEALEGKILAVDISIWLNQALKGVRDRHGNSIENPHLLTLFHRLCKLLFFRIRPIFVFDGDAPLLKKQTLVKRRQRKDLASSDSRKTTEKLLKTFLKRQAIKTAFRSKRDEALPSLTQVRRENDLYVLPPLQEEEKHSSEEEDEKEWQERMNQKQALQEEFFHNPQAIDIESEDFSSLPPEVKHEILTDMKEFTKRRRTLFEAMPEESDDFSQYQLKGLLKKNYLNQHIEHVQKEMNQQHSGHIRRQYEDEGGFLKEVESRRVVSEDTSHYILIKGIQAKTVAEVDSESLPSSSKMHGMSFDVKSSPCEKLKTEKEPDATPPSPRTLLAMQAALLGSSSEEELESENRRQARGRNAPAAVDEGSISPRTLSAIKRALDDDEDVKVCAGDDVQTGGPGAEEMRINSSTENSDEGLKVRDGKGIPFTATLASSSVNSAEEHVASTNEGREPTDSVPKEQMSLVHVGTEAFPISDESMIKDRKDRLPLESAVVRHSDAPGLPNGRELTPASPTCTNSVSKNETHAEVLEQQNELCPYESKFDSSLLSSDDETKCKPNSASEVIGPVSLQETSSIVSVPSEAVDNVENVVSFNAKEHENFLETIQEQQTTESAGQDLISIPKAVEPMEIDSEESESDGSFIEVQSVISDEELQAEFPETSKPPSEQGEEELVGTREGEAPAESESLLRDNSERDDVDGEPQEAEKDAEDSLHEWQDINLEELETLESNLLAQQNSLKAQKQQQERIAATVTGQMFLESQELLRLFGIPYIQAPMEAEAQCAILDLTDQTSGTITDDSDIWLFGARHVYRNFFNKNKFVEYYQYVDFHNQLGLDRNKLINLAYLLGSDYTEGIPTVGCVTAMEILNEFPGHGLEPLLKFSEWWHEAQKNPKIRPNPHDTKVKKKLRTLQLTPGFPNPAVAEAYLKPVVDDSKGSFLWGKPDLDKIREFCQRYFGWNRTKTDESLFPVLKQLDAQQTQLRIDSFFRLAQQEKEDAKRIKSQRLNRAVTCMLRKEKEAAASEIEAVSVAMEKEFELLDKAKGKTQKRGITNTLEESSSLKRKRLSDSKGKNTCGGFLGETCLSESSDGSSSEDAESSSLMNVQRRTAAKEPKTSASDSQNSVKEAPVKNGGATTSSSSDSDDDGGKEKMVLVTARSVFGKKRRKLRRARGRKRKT

H460 cells = experiment: Cisplatin interstrand crosslink repair by comet assay; format: cell-based; details: compound 15 μM 2 h then cisplatin at IC90; 0-72 h
Method: (B) After treatment, comet assay was performed as described at different time intervals (0, 24, 48 and 72 h). The percentage of interstrand crosslinks remaining was calculated using olive tail moment. Results are represented as mean ± SEM of three independent experiments.
The data is expressed as the percentage of crosslinks remaining at the time points assessed.
Cells were treated with compound (Hit control (9:1 DMSO-glycerol). After incubation at 37°C 1 or Hit 2) and cisplatin or just cisplatin alone in serum for 30 minutes, 2 μL of the pre-incubate was diluted into a free media. […] Cells were further treated with 100 μM
Cells were then trypsinized, pelleted and resuspended in 1% low melting point agarose.

Row | SMILES | effect on XPG activity (XPG) | effect on ICL repair (H460 cells)
1 | Cc1ccc(S(=O)(=O)Oc2cc(S(=O)(=O)O)cc3cc(S(=O)(=O)O)cc(N)c23)cc1 [NSC16168] | no effect | does not have any effect on ICL repair
2 | Oc1cc(O)c2c(c1)OC(c1ccc(O)c(O)c1)C(O)C2c1c(O)cc(O)c2c1OC(c1ccc(O)c(O)c1)C(O)C2 (stereo not shown) [NSC143099] | some effect on XPG activity at higher concentrations | ICL repair was significantly reduced
